{
  "source": "patent US10695436B2",
  "about": "“Non-cleavable polymer conjugated with alpha V beta 3 integrin thyroid antagonists” (NANOPHARMACEUTICALS, LLC, priority 2016, dated 2020)",
  "key": {"[1]": {"test": "Safety studies, C57BL6 mice, 14 days", "assay_type": "in vivo", "protocol": "Preclinical toxicology of a representative of the polymer conjugated thyrointegrin antagonist antiangiogenic agent of P-bi-TAT was pursued in 5-to-6 week-old C57BL6 mice, treated for 14 days with varying doses of P-bi-TAT. The treatment groups were control (vehicle), 1 mg/kg, 3 mg/kg, 10 mg/kg, 30 mg/kg, 100 mg/kg and 330 mg/kg P-bi-TAT, administered daily s.c. for 14 days. Each treatment group consisted of 5 male and 5 female animals, and animal weights were measured twice weekly. Mice terminated after 14 days and blood samples collected from the retro-orbital venous plexus. Blood samples centrifuged, and harvested plasma was stored at −80° C. until subjected to analyses described below.\nLiver function was estimated by measurement in stored plasma of alanine transaminase (ALT) and aspartate transaminase (AST) activities (Colorimetric kit, Biovision, Inc., Milpitas, Calif.) the data for which is shown in FIG. 44. Cardiac troponin I (cTnI) levels in plasma were measured by an ELISA method (Life Diagnostics, West Chester, Pa.) as an index of myocardial damage (FIG. 44). It is a troponin found exclusively in the heart and not in other forms of muscle. Kidney function estimated by measurement of plasma creatinine concentration (Colorimetric kit, Biovision, Inc.) (FIG. 44). Satisfactory standard curves were constructed for each of the liver and kidney assays. […]"}, "[2]": {"test_system": "Matrigel growth factors implant-mediated angiogenesis", "test": "Mouse Matrigel-growth factors implant angiogenesis model (hemoglobin)", "assay_type": "in vivo", "conditions": "10, 30, 100 μg/10 μl; day 14", "protocol": "The mouse Matrigel model was performed in accordance with institutional guidelines for animal safety and welfare. Female mice C56/BL aged 5-6 weeks and body weights of 20 g were purchased from Taconic Farms (Hudson, N.Y., USA). The animals were maintained under specific pathogen-free conditions and housed 4 animals per cage, under controlled conditions of temperature (20-24° C.) and humidity (60-70%) and a 12 h light/dark cycle. The in vivo study carried out in the animal facility of the Veterans Affairs (VA) Medical Center, Albany, N.Y., and the experimental protocol approved by the VAIACUC. Mice were acclimated for 5 d prior to the start of experiments. […]\nPolymer Conjugated DAT, TAT or MAT derivatives were tested at three different doses (10, 30, 100 μg/10 μl). […] At day 14-post plug implant, all animals were sacrificed and hemoglobin contents were quantitated using spectrophotometry. […]\nMatrigel plug hemoglobin (Hb) content was indexed as a measure of new vascularity formation. […] A volume of 50 μl of supernatant were mixed with 50 μl of Drabkin's reagent and allowed to sit at room temperature for 15-30 min, after which 100 μl was placed in a 96-well plate and absorbance was measured at 540 nm with a Microplate Manager ELISA reader. The Hb concentration was expressed as mg/ml based on comparison with a standard curve."}, "[3]": {"test_system": "pancreatic cancer SUIT 2 xenografts", "test": "Pancreatic cancer SUIT 2 xenografts, with or without radiation", "assay_type": "in vivo, mouse", "conditions": "for Decrease in tumor size, combination with radiation / Decrease in cell viability, combination with radiation / Increase of necrosis, combination with radiation: vs. non-irradiated control; for Tumor weight reduction after 20 days / Increase in % cell necrosis in tissue sections / Percent reduction in tumor cell viability: no radiation", "protocol": "Female NCr mice (Taconic Farms, Hudson, N.Y.) for in vivo studies obtained at 5-6 weeks of age (20 gm body weight) and maintained under specific pathogen-free conditions, and food and water provided ad libitum. The animals allowed to acclimate for 5 days. Cultured human SUIT 2 cells were harvested and implanted subcutaneously (s.c.) in each flank of the mice. Inocula comprising 100 μL, 50% Matrigel °, and containing 2×10^6 tumor cells was prepared. Tumors were grown for 7 days, at which time the animals were randomized into control and P-bi-TAT groups (6 animals/group, 12-carcinoma grafts/group). Starting on day 0, drug was administered at 3 or 10 mg of P-bi-TAT/kg body weight, daily for 20 days (to experimental day 19). Control animals received vehicle (PBS) daily. Animals were sacrificed on experimental day 20. Tumors were harvested and the weight of the tumors were measured. Tumors were formalin-fixed, imbedded in paraffin and sliced.\nEffectiveness of radiation therapy, alone and in conjunction with P-bi-TAT was also assessed. The Radiation treatment was one Gy administered to right flank xenografts on days 10 and 17. Geometry of flank exposure excluded radiation exposure to the left flank of study animals, so that the left flank served as a control in the radiation studies."}, "[4]": {"test_system": "orthotropic brain GBM tumor and subcutaneous GBM xenografts", "test": "Kinetics of Cy5 labeled conjugates in GBM tumors (IVIS imaging)", "assay_type": "in vivo", "protocol": "Each group of animals was provided with orthotropic implants (GBM) and after tumor growth in the brain and subcutaneously implanted GBM Xenografts. Polymer conjugated MAT 210, TAT 230 or DAT 220 derivatives were injected subcutaneously with P-bi-TAT-Cy5 and other polymer conjugated TAT 230 or DAT 220 derivative-Cy5. IVIS imaging was performed immediately after injection and at 30 min, 1 h, 2 h, 3 h, 4 h to detect the fluorescence intensity at the orthotropic brain xenograft tumor site (brain) and subcutaneous xenografts tumors. […] The graphs depicted in FIGS. 34 and 35 describe the kinetics of the thyrointegrin antagonist derivatives' uptake into GBM tumors in the brain or subcutaneously implanted tumors. FIGS. 34-35 describe the effects of the polymer conjugated thyrointegrin antagonist derivatives containing MAT 210, DAT 220 and TAT 230 over time including bifunctional embodiments thereof."}, "[5]": {"test_system": "U87MG glioblastoma xenografts", "test": "U87MG-luc glioblastoma subcutaneous xenografts in the nude mouse", "assay_type": "in vivo", "protocol": "The xenograft model of glioblastoma is a standard model for study of GBM. In the current studies, athymic, immunodeficient NCr nude mice aged 5-6 weeks and weighing 18-20 g were used. Animals were provided with ad libitum access to water and food. Animals allowed to acclimatize to the facility for 5 days prior to study. Cultured U87MG-luc cells were harvested and implanted subcutaneously (s.c.) in each flank (5×10^6 cells in 100 uL volumes containing 50% Matrigel) Tumors were grown for 2 days (to an initial volume of 150-250 mm^3) before administration of the control, C-DAT 1320, C-TAT 1330, P-TAT 730, P-bi-DAT 1020, P-bi-TAT 1030. Immediately before initiation of treatment at 2 days after implantation, animals were divided into control and treatment groups containing similar distributions of tumor volumes (calipers measurement). Polymer conjugated P-DAT 720 and P-TAT 730 (3 mg or 10 mg/kg body weight) was administered daily s.c. to two groups of animals×21 days, and vehicle (PBS, pH 8.0/0.5% ethanol) was administered daily s.c. to one group of animals as control×21 days. There were 4 animals and 8 grafts/treatment group. The control group and one group of drug-treated animals humanely sacrificed at 21 days; the second group of drug-treated mice observed off therapy for an additional 22 days to detect any tumor re-growth. The second drug-treated group thus observed for a total of 43 days. Tumors harvested and weighed, then fixed, sliced and subjected to hematoxylin and eosin (H&E) staining. Microscopic slides accommodated the full diameter of the control tumors. […]\nHistologic evaluation of paraffin-embedded tissue sections were stained (hematoxylin and eosin), and each section was coded. The area of the section measured with a stage micrometer, and the percentage of viable vs. necrotic tumor, manifested by loss of cell density, dissolution of the plasma membrane and loss of nuclear structure estimated visually. The number of mitoses and apoptotic cells per high power field was counted for 5 fields of viable tumor areas and averaged per tissue section. […]"}, "[6]": {"test_system": "U87-luc cells", "test": "GBM (U87-luc) xenografts, orthotopic and subcutaneous, 7 days treatment", "assay_type": "in vivo, mouse", "conditions": "1, 3 and 10 mg/kg, SC daily for 7 days", "protocol": "Glioblastoma cells: U87-luc cells implanted orthotopically at 0.2×10^6 cell in 20 ul, in Matrigel and subcutaneously xenografted at 2×10^6 cells/implant with Matrigel in athymic female mice. Animals treated with polymers conjugated thyrointegrin antagonists, including derivatives of P-DAT 720, P-TAT 730 and bifunctional derivatives thereof for 7 days after 1 day post-implant and IVIS imaging of the brain tumor and subcutaneous tumor xenograft. […] FIGS. 38-40 depict the measurable dose-dependent effects of p-bi-TAT 1030 on brain GBM tumor and subcutaneous GBM tumor including the effect on luminescent signals of GBM in the brain, average tumor weight and bioluminescent intensity."}},
  "data": [
    {"substance": "O,O′-Bis({4-[3,5-diiodo-4-(1-methylen-1,2,3-triazol-4-ylmethoxy)phenoxy]-3,5-diiodophenyl}acetic acid) polyethylene glycol [P-bi-TAT]", "values": [
      {"measurement": "Body weights", "setting": "[1]; 1-330 mg/kg daily s.c. for 14 days", "value": "unaffected"},
      {"measurement": "Liver, heart or kidney toxicity (ALT, AST, cTnI, creatinine in plasma)", "setting": "[1]; male and female mice, 2 weeks, up to 100-fold the efficacious dose (3-10 mg/kg)", "value": "no evidence of liver, heart or kidney toxicity"},
      {"measurement": "Anti-angiogenic effect (Matrigel plug hemoglobin levels)", "setting": "[2]", "value": "dose dependent response on angiogenesis"},
      {"measurement": "Decrease in tumor size, combination with radiation", "setting": "[3]; 3 mg P-bi-TAT/kg plus one Gy radiation", "value": 71, "unit": "%"},
      {"measurement": "Tumor weight reduction after 20 days", "setting": "[3]; 3 mg/kg daily", "value": 55, "unit": "%"},
      {"measurement": "Decrease in cell viability, combination with radiation", "setting": "[3]; 3 mg/kg plus 1 Gy radiation", "value": 54, "unit": "%"},
      {"measurement": "Increase of necrosis, combination with radiation", "setting": "[3]; 3 mg/kg plus 1 Gy radiation", "value": 65, "unit": "%"},
      {"measurement": "Increase in % cell necrosis in tissue sections", "setting": "[3]; 3 mg/kg", "value": "not significant"},
      {"measurement": "Percent reduction in tumor cell viability", "setting": "[3]; 3 mg/kg", "value": "insignificant"},
      {"measurement": "Decrease in tumor size, combination with radiation", "setting": "[3]; 10 mg P-bi-TAT/kg plus one Gy radiation", "value": 77, "unit": "%"},
      {"measurement": "Tumor weight reduction after 20 days", "setting": "[3]; 10 mg/kg daily", "value": 65, "unit": "%"},
      {"measurement": "Decrease in cell viability, combination with radiation", "setting": "[3]; 10 mg/kg plus 1 Gy radiation", "value": 68, "unit": "%"},
      {"measurement": "Increase of necrosis, combination with radiation", "setting": "[3]; 10 mg/kg plus 1 Gy radiation", "value": 70, "unit": "%"},
      {"measurement": "Increase in % cell necrosis in tissue sections", "setting": "[3]; 10 mg/kg", "value": "more than a doubling"},
      {"measurement": "Percent reduction in tumor cell viability", "setting": "[3]; 10 mg/kg", "value": 43, "unit": "%"},
      {"measurement": "Cy5 signal in the brain over time", "setting": "[4]; subcutaneous injection, IVIS up to 4 hours", "value": "seen in the brain at 30 minutes and sustained for the 4 hours of monitoring"},
      {"measurement": "Cy5 signal in brain GBM tumor versus subcutaneous GBM tumor xenografts", "setting": "[4]; tumors removed after 4 hours", "value": "comparable"},
      {"measurement": "Reduction in tumor cell viability (histological score)", "setting": "[5]; 3 mg P-bi-TAT/kg s.c. daily for 21 days", "value": 62, "unit": "%"},
      {"measurement": "Reductions in cell viability achieved by day 21", "setting": "[5]; 3 mg/kg and 10 mg/kg dosages, histologic evaluation", "value": "60-70%"},
      {"measurement": "Reduction in tumor cell viability (histological score)", "setting": "[5]; 10 mg P-bi-TAT/kg s.c. daily for 21 days", "value": 72, "unit": "%"},
      {"measurement": "Suppression of tumor and cell viability in brain and subcutaneous GBM tumor", "setting": "[6]", "value": "dose dependent suppression of the tumor"}
    ]}
  ]
}
